What was measured:
[1] = target: T1, human Notch1 with residues 382-386 mutated to the corresponding human Notch2 residues (Homo sapiens, UniProt P46531, E383K/N382H/N386L/S385A); experiment: FACS binding to mutant human Notch1 carrying Notch2 residues; conditions: HEK 293 transiently transfected
T1 construct: several point mutants were created within full-length Notch1; expressed in transfected cells; host or cells: HEK 293, transient, co-transfected with GFP
Protocol: A comparison analysis of the EGF 10 regions of human Notch1, Notch2, and Notch4 and the EGF 9 region of human Notch3 (the equivalent of EGF 10 in the other Notch receptors) was performed to determine likely binding sites for 59R1 (FIG. 14A). As a result of the analysis, several point mutants were created within full-length Notch2, converting residues within EGF 10 to the corresponding amino acids in human Notch 1. Also, conversely, point mutations were made in hNotch1 EGF 10 converting residues to the corresponding hN2 residues. Mutants in full-length Notch sequences were generated by QuikChange® mutagenesis (Stratagene) and verified by sequencing. Binding to the mutants was determined by FACS analysis (FIGS. 14B and 14C). 59R1 was detected by PE-conjugated goat anti-human Fc gamma specific antibody (Jackson Immunochemicals, #109-116-170). […] The corresponding residues in hNotch3 are histidine 361, alanine 364, and isoleucine 365.
The binding epitope of 59R5 was determined. As was described in Example 3 for analysis of antibody 59R1, several point mutants were created within full-length Notch1, converting residues within EGF10 to the corresponding amino acids in human Notch 2. […] 59R1 and 59R5 were detected by PE-conjugated goat anti-human Fc gamma specific antibody (Jackson Immunochemicals, #109-116-170). […]

[2] = test system: Colo-205 colon tumor cells; experiment: Colo-205 colon tumor xenograft growth; format: in vivo, mice; conditions: for Colo205 Tumor vol relative to the control group: 15 mg/kg once per week; for growth of Colo205 colon tumors: 15 mg/kg once per week after tumors established
Protocol: In one experiment, the 1×10^7 viable Colo-205 colon tumor cells were injected into 6-8 week-old immunodeficient bg/nu XID female mice on a Swiss CD-1 background. Tumors were allowed to grow to a size of between 65 to 200 mm^3 after which mice were randomized (n=10 per experimental group), and antibodies administration begun. Animals were treated with 15 mg/kg of either control 1B7.11 antibodies or anti-Notch2/3 59R1 antibodies once weekly. Tumor size was measured twice weekly, and tumor volume was calculated as described (see Michieli et al., 2004, Cancer Cell, 6:61-73).
The 59R1 IgG2 antibody was also tested in vivo in the breast tumor xenograft lines OMP-B34, OMP-B39, OMP-B44, PE13, and UM-T1, the pancreas tumor xenograft line OMP-PN8, and the colon tumor xenograft line OMP-C8. These tumor xenograft lines were established by adhering to procedures described in Al-Hajj et al., 2003, Proc. Natl. Acad. Sci. USA, 100:3983-3988. Female NOD/SCID immuno-compromised mice 7-10 weeks old were used for the establishment of the breast tumor xenografts and male NOD/SCID mice were used for the OMP-Pn8 and OMP-C8 tumor-models (Harlan, Indianapolis, Ind.). The 59R1 IgG2 antibody was also tested in vivo in a Colo-205 colon tumor xenograft model. Female immunodeficient bg/nu XID mice on a Swiss CD-1 background were used for the Colo-205 xenograft tumor model. In case of the breast cancer models, slow-releasing estrogen pellets (0.36 mg) had to be implanted. Mice were subcutaneously injected on the right flank with 50,000 (OMP-B34, OMP-B39, OMP-B44, PE13, and UM-T1) or 1×10^7 (Colo-205) viable cells, respectively, in a mixture of PBS (without magnesium or calcium) and Matrigel at a 1:1 ratio. The injected total volume per mouse was 200 μl with 50% being Matrigel. Once the tumor had reached a size between 65-200 mm^3, the mice were randomized. Antibodies were administered weekly and tumors measured twice weekly. LZ1 (a human antibody that recognizes lyzozyme) or 1B711 (a murine IgG1 antibody that recognizes the hapten trinitrophenol) was used as a control antibody for treatment of each tumor type. Tumor volume was calculated as described Al-Hajj et al. (2003). Data are expressed as the mean and the mean±S.E.M. Group means were compared using Student's two-tailed, unpaired t-test. […] All statistical analysis was performed using Microsoft EXCEL and Graph Pad PRISM.
In another embodiment, NOD/SCID mice were injected with Colo205 colon tumor cells. The mice were treated with anti-Notch2/3 antibody 59R1, anti-Notch2/3 antibody 59R5 or control antibody. Antibodies were dosed at 15 mg/kg once per week after tumors had been established.
Tumor volumes and p values for each experiment are shown relative to the control group. The PE13, C28 and Colo205 studies were carried out as described in Example 14. PN8 studies were carried out as described above. For the PN8 experiment, the control is gemcitabine alone and values for 59R1 and 59R5 are the combinations with gemcitabine. Antibodies were dosed once per week at 15 mg/kg for all experiments.

[3] = established tumors, 15 mg/kg once a week

T1 sequence (P46531 19-2555 N382H/E383K/S385A/N386L): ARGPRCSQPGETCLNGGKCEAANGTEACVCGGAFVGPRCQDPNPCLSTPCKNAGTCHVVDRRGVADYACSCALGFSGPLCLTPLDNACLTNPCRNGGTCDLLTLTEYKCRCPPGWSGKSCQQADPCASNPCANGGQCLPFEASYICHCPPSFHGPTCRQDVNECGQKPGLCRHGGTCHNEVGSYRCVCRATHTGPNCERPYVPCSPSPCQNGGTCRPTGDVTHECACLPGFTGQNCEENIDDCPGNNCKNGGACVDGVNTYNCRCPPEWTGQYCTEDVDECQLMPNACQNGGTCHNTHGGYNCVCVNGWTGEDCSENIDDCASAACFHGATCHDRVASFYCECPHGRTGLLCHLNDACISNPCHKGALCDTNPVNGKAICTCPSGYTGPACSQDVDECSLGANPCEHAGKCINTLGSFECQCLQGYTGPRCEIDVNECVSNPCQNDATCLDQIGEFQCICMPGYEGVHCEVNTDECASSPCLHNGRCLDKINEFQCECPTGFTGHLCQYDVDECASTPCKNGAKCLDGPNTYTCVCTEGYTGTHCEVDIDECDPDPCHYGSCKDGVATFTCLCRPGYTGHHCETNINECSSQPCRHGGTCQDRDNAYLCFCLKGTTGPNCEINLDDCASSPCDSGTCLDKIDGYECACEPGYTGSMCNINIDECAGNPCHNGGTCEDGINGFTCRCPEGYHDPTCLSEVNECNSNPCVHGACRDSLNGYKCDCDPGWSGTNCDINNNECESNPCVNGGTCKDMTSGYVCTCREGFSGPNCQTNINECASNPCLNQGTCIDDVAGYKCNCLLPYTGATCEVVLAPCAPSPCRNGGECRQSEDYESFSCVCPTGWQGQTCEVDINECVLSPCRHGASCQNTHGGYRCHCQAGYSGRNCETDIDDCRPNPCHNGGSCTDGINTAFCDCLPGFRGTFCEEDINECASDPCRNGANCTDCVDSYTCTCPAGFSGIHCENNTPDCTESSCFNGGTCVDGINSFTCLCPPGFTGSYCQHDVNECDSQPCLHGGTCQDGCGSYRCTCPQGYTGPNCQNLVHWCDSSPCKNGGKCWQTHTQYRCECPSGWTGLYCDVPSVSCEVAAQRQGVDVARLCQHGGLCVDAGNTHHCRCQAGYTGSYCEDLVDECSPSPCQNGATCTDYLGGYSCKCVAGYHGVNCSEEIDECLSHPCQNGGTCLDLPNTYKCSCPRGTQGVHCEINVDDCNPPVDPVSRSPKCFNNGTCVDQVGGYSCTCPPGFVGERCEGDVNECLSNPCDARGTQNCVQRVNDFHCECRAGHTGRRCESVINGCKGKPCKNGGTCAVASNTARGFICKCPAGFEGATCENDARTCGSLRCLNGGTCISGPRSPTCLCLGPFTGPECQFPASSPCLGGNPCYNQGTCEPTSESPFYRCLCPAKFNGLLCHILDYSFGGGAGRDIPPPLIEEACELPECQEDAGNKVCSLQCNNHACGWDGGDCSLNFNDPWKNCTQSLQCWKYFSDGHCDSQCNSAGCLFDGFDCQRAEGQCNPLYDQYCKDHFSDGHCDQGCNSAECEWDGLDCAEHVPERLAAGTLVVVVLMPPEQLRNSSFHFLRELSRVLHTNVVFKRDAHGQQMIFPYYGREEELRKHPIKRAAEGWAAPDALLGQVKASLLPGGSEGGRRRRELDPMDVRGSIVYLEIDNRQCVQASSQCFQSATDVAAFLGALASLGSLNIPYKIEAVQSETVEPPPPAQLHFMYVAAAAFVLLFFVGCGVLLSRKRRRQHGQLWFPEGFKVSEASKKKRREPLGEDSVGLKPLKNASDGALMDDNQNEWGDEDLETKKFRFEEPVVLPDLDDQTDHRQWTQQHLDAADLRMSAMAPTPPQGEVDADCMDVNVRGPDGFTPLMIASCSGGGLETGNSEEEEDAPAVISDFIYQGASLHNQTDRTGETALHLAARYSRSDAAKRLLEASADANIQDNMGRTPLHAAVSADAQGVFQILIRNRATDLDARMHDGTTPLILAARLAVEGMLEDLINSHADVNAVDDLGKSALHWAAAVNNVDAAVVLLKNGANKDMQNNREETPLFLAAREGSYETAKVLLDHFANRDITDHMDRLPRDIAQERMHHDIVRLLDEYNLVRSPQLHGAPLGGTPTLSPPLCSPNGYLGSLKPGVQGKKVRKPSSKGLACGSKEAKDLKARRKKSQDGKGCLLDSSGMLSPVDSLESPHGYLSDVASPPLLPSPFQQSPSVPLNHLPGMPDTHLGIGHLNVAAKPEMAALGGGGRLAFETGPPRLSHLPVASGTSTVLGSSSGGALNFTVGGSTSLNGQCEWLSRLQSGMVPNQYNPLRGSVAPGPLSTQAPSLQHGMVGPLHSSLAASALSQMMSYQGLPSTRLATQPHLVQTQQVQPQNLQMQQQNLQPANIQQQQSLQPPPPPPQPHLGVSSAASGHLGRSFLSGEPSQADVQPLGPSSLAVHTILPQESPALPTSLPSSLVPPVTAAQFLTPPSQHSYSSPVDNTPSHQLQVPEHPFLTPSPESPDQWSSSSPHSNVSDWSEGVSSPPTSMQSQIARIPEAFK

Row | Substance | FACS binding to mutant hNotch1 with EGF 10 residues mutated to hNotch2 residues 385-389 [1] | Colo205 Tumor vol relative to the control group [2] | growth of Colo205 colon tumors [2] | Colo205 tumor growth, combination of 59R1 plus bevacizumab (AVASTIN) versus either alone [2, 3] | Colo205 tumor growth, monotherapy relative to control antibody (LZ1) [2, 3] | Colo-205 tumor growth compared to control ([2]; established tumors, 15 mg/kg once weekly, control 1B7.11)
1 | 59R1: human IgG2 antibody binding Notch2 and Notch3; heavy and light chain SEQ ID NO:16 and 18; ATCC PTA-9547 | does bind | 0.68 | inhibited | even greater inhibition of tumor growth | significantly inhibited growth | significantly reduced
2 | 59R5: human antibody that specifically binds human Notch 2 and human Notch 3; heavy and light chain SEQ ID NO:49 and 18; ATCC PTA-10170 | able to bind | 0.61 | inhibited | – | – | –

— patent US8226943B2, “Antibodies to notch receptors” (OncoMed Pharmaceuticals, Inc., priority 2008, dated 2012)
